# Test results as given in patent publication US9597408B2, “Peptide-mediated non-covalent delivery of active agents across the blood-brain barrier” (Mayo Foundation for Medical Education and Research, priority 2009, dated 2017).
# Where no end group is shown, it is not given here.
# How the values were obtained:
# [1] = test system: BBB; design: species or system mice; settings: mouse, in vivo
# Description: FIG. 8 illustrates the testing mutant ApoE peptides for their potential as non-covalent transporters of proteins across the BBB. A—no peptide, no β-gal; B—K16ApoE (SEQ ID NO: 22)+β-gal; C—K16L3N7 (SEQ ID NO: 126)+β-gal; D—K16L3L20 (SEQ ID NO: 127)+β-gal; E—K16N7L20 (SEQ ID NO: 128)+β-gal.
# β-galactosidase was mixed with equal amounts of various peptide transporters and injected into mice. Slides were prepared using 25 μm sections of the mice brains one hour after injection followed by development of enzyme staining (FIG. 8).
# [2] = test system: BBB; design: species or system mice; settings: mouse, in vivo; remark: listed apart in the source
# Description: Each mouse (represented by A through G) received an injection of K16ApoE (SEQ ID NO: 22), followed by injection of β-galactosidase at the indicated times. Brain slices were made 4 hours after β-galactosidase injection and were followed by staining for activity of the enzyme. A—β-galactosidase was injected 1 minute after K16ApoE (SEQ ID NO: 22) injection. B—β-galactosidase was injected 5 minutes after K16ApoE (SEQ ID NO: 22) injection. C—β-galactosidase was injected 10 minutes after K16ApoE (SEQ ID NO: 22) injection. D—β-galactosidase was injected 30 minutes after K16ApoE (SEQ ID NO: 22) injection. E—β-galactosidase was injected 1 hour after K16ApoE (SEQ ID NO: 22) injection. F—β-galactosidase was injected 2 hours after K16ApoE (SEQ ID NO: 22) injection. G—β-galactosidase was injected 4 hours after K16ApoE (SEQ ID NO: 22) injection. H—positive control (β-galactosidase mixed with K16ApoE (SEQ ID NO: 22) was injected, brain slices were made 4 hours after the injection and proceeded for staining for enzyme activity).
# A transporter that efficiently carries a protein in the brain should not do so by impairing the integrity of the BBB. To evaluate if K16ApoE (SEQ ID NO: 22) impairs the integrity of the BBB, the peptide was first injected intravenously, then injected β-galactosidase at different time intervals. The control mice received the enzyme mixed with the peptide. […]
# [3] = test system: brain; experiment: β-galactosidase delivery in brain, enzyme activity staining of brain slices; assay type: in vivo
# Description: Required amount of the peptide and protein were mixed in a final volume of 300 μL PBS (phosphate buffered saline), and incubated at room temperature for 60 minutes. The mixture was vortexed for a few seconds, every fifteen minutes during the incubation period.
# The mixture was injected intravenously as a bolus into the lumen of the femoral vein. This was accomplished using a heat pulled PE50 catheter. At the conclusion of the experiment, the mouse was euthanized with a lethal dose of sodium pentobarbital. Each mouse was perfused with 10 mL PBS. This perfusion was accomplished through the standard trans cardial method. The brain was removed from the skull and positioned to make an initial coronal slice at −2.0 mm bregma. Subsequently, 25 μm coronal sections were cut on a cryostat and placed on charged slides for staining of β-galactosidase activity.
# Evaluation of β-galactosidase enzymatic activity was accomplished by an initial 15 minute fixation of the brain sections in 0.25% glutaraldehyde. The slides were washed with 3 changes of PBS for 5 minutes each and then rinsed in distilled water for 5 minutes. The brain sections were incubated in X-Gal (0.2%) working solution, pH 7.38, for 18 hours at 37° C. in covered containers. Following this incubation the sections were dehydrated and coverslips were applied.
# To evaluate the potential of K16ApoE (SEQ ID NO: 22) for delivering a protein across the BBB, the enzyme β-galactosidase was injected in mice with or without prior mixing with K16ApoE (SEQ ID NO: 22) (at a protein to peptide molar ratio of 1:70). The experiment was repeated more than a dozen times. […] It is speculated that either X-gal or 5-bromo-4-chloroindole or both somehow leach out of this region faster than other regions of the brain resulting to a faint signal for β-galactosidase activity.
# [4] = test system: BBB; design: species or system mice; settings: mouse, in vivo; remark: listed apart in the source
# Description: The delivery of radiolabeled IgG across the BBB in different brain regions in mice with and without the peptide K16ApoE (SEQ ID NO:22) was evaluated. In addition, the integrity of the BBB after delivery of IgG with K16ApoE (SEQ ID NO: 22) was examined. […] of ^125I-IgG were mixed with varying amounts of the peptide K16ApoE (SEQ ID NO: 22) (0-55 μmol), and the mixture injected intravenously into the mice. ^131I-IgG not complexed with the peptide was injected into the same animals at 59 minutes and allowed to circulate for 1 minute subsequent to the initial femoral vein injection of ^125I-IgG+K16ApoE (SEQ ID NO: 22). Uptake of ^125I-IgG and ^131I-IgG were measured in different areas of the brain after 60 minutes.
# PS values reflect the amount of ^125I-IgG that has crossed the BBB, whereas Vp values indicate the amount of ^131I-IgG at the BBB but which has not crossed the BBB.
# [5] = test system: mouse brain; experiment: microSPECT imaging of delivery of radioiodinated human IgG and IgM; assay type: in vivo
# Description: Micro SPECT/CT experiments were conducted on a Gamma Medica X SPECT System (GE Healthcare). Human IgG (Sigma) and IgM (Sigma) were labeled to a high specific activity using the Chloramine-T method. […] Immediately subsequent to the intravenous bolus injection, the mice were imaged every hour for a total of 6 hours. At the completion of the 6 hour time point, each mouse was euthanized and the systemic blood supply was transcardially perfused with 10 mL phosphate buffered saline, and imaged after 30 minutes.
# Since many potentially therapeutic proteins against brain-associated disorders are immunoglobulins, delivery of IgG and IgM through K16ApoE (SEQ ID NO: 22) in mouse brain was evaluated by micro-single photon emission computed tomography (microSPECT) imaging. For this, radioiodinated human IgG (Sigma, product # I 4506) and human IgM (Sigma, product # I 8260) were mixed with K16ApoE (SEQ ID NO: 22) and injected intravenously. Anesthetized animals were then subjected to imaging for 6 hours at 1 hour interval. Cardiac perfusion was then performed, after which final imaging was done at 30 minutes post-perfusion. Results from these experiments provide a number of indications (FIG. 4): First, it appears that peak delivery of both IgG and IgM into brain happens around 2 hours post-injection of the peptide-protein mix, after which uptake of the proteins in the brain remains relatively unchanged up to 6 hours (maximum time point tested). Second, cardiac perfusion appears to remove most of the radioactive protein in the vasculature, concomitantly increasing the difference between apparent brain-uptake of the protein with and without the carrier peptide (˜5-fold).
# [6] = test system: brain; design: species or system mice; settings: mouse, in vivo
# Description: FIG. 1 is a series of images illustrating the differences between delivery of Alexa-IgG complexed to K16ApoE (SEQ ID NO: 22) into brain and uncomplexed Alexa-IgG.
# In this experiment, AlexaIgG488 was injected into mice with or without mixing with K16ApoE peptide (SEQ ID NO:22). Brain sections were made 1 hour after delivery.
# [7] = test system: BBB; experiment: Necessity of covalent linking of K16 and ApoE moieties: β-galactosidase staining of brain sections; assay type: in vivo, mice; settings: β-galactosidase mixed with the peptide(s); FIG. 7
# Description: Delivery of β-galactosidase in brain with K16 peptide (SEQ ID NO: 4) alone (A), with ApoE peptide only (B), with K16 peptide (SEQ ID NO: 4)+ApoE peptide (C), and with K16APoE peptide (SEQ ID NO: 22) (D).
# The necessity of covalent linking of the K16 (SEQ ID NO: 4) and ApoE (SEQ ID NO: 13) peptide moieties was evaluated for non-covalent transport of a protein across the BBB. For this, β-galactosidase was mixed with either the ApoE peptide, the peptide K16 (SEQ ID NO: 4), ApoE plus K16 (SEQ ID NO: 4) or with K16ApoE (SEQ ID NO: 22), and injected in mice.
substance,measurement,setting,value
"KKKKKKKKKKKKKKKKLRLRLASHLRKLRKRLLRDL [mutant B, KKKK KKKK KKKK KKKK LRLR LASH LRKL RKRL LRDL]",transport of β-galactosidase compared with wild-type ApoE blood-brain barrier agent,[1],at least as well as wild-type or better
"KKKKKKKKKKKKKKKKLRVRLANHLRKLRKRLLRDL [mutant C, KKKK KKKK KKKK KKKK LRVR LANH LRKL RKRL LRDL]",transport of β-galactosidase compared with wild-type ApoE blood-brain barrier agent,[1],at least as well as wild-type or better
"KKKKKKKKKKKKKKKKLRVRLASHLRKLRKRLLRDA [K16ApoE, KKKKKKKKKKKKKKKKLRVRLASHLRKLRKRLLRDA]",effect of the peptide by itself on the BBB,[2],did not seem to affect the BBB
same,time until binding of injected peptide to proteins and cells in the circulation is virtually complete,[2]; iv,≤ 10 min
same,areas of the brain reached by the delivered β-galactosidase,"[3]; mouse, in vivo",virtually every area of the brain
same,β-galactosidase activity in brain,"[3]; mouse, in vivo",intense β-galactosidase activity
same,Vp values in all the brain regions examined (in words),[4],virtually unchanged
same,damage of the BBB due to prior exposure to the peptide,[4],not damaged
same,share of the injected immunoglobulins transported into the brain,"[5]; IgG and IgM, under the experimental condition",about 1%
same,difference between brain-uptake of the protein with and without the carrier peptide,"[5]; IgG and IgM, after cardiac perfusion",~5 fold
same,time of peak delivery of IgG and IgM into brain,"[5]; post-injection of peptide-protein mix, 70-fold molar excess of peptide, FIG. 4",around 2 hours
same,contrast and enhancement of brain structures compared to uncomplexed AlexaIgG488,[6],significantly brighter contrast and enhancement of brain structures
"KKKKKKKKKKKKKKKKLRLRLANHLRKLRKRLLRDA [mutant A, KKKK KKKK KKKK KKKK LRLR LANH LRKL RKRL LRDA]",transport of β-galactosidase compared with wild-type ApoE blood-brain barrier agent,[1],worse than the wild-type
"KKKKKKKKKKKKKKKK [K16, KKKKKKKKKKKKKKKK]",β-galactosidase staining in brain sections,[7],β-galactosidase staining only in slides from mice receiving β-galactosidase mixed with K16ApoE
"β-galactosidase: Bacterial β-galactosidase purchased from Calbiochem, enzyme injected alone [reference compound]",β-galactosidase activity in brain,"[3]; protein to peptide molar ratio 1:70 or enzyme alone, slices 6 hours after injection, FIG. 3A",no activity
